From PubChem BioAssay AID248 (DTP/NCI, 2004)
Several values for one entry are separate records, joined by “and”; a condition that tells them apart may be missing. Equal entries are not always repeated. Toxic doses and inconclusive results are not listed.

Test system: L1210 leukemia ip in BDF1 mice, survival T/C
Assay: NCI In Vivo Anticancer Drug Screen. Data for tumor model L1210 Leukemia (intraperitoneal) in B6D2F1 (BDF1) mice
Details: endpoint: mean survival time, higher = longer survival
Procedure, shortened: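 Tumor cells were implanted, animals were treated, and survival was followed. The result divides the treated measurement by the vehicle-control measurement.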

[1] = dose: 100.0 mg/kg/injection, schedule: Q04DX003 (ip), vehicle: Klucel (hydroxypropylcellulose) (HPC)
[2] = dose: 200.0 mg/kg/injection, schedule: Q04DX003 (ip), vehicle: Klucel (hydroxypropylcellulose) (HPC)
[3] = dose: 100.0 mg/kg/injection, schedule: Q04DX003 (ip), vehicle: saline
[4] = dose: 200.0 mg/kg/injection, schedule: Q04DX003 (ip), vehicle: saline
[5] = dose: 400.0 mg/kg/injection, schedule: Q01DX009 (ip), vehicle: saline
[6] = dose: 400.0 mg/kg/injection, schedule: Q04DX003 (ip), vehicle: saline
[7] = dose: 100.0 mg/kg/injection, schedule: Q01DX009 (ip), vehicle: Klucel (hydroxypropylcellulose) (HPC)
[8] = dose: 200.0 mg/kg/injection, schedule: Q01DX009 (ip), vehicle: Klucel (hydroxypropylcellulose) (HPC)
[9] = dose: 400.0 mg/kg/injection, schedule: Q01DX009 (ip), vehicle: Klucel (hydroxypropylcellulose) (HPC)
[10] = dose: 50.0 mg/kg/injection, schedule: Q01DX001 (ip), vehicle: carboxymethylcellulose (CMC)
[11] = dose: 100.0 mg/kg/injection, schedule: Q01DX001 (ip), vehicle: carboxymethylcellulose (CMC)
[12] = dose: 200.0 mg/kg/injection, schedule: Q01DX001 (ip), vehicle: carboxymethylcellulose (CMC)
[13] = dose: 400.0 mg/kg/injection, schedule: Q01DX001 (ip), vehicle: carboxymethylcellulose (CMC)
[14] = dose: 50.0 mg/kg/injection, schedule: Q01DX009 (ip), vehicle: Klucel (hydroxypropylcellulose) (HPC)
[15] = dose: 50.0 mg/kg/injection, schedule: Q01DX009 (ip), vehicle: saline with Tween-80
[16] = dose: 100.0 mg/kg/injection, schedule: Q01DX009 (ip), vehicle: saline with Tween-80

`CN(C)c1ccc(C=NCCCNC2CCCCC2)cc1` was tested, and the T/C (dose: 25.0 mg/kg/injection, schedule: Q04DX003 (ip), vehicle: other) was 94 % of control, the T/C (dose: 50.0 mg/kg/injection, schedule: Q04DX003 (ip), vehicle: other) was 102 % of control and the T/C (dose: 100.0 mg/kg/injection, schedule: Q01DX001 (ip), vehicle: saline) was 88 % of control.
In the case of `C[Si](C)Cc1cccc(F)c1`, the T/C [1] is reported as 105 % of control, the T/C [2] is reported as 105 % of control and the T/C (dose: 400.0 mg/kg/injection, schedule: Q04DX003 (ip), vehicle: Klucel (hydroxypropylcellulose) (HPC)) is reported as 100 % of control.
With `COCC(N)=O` the T/C (dose: 100.0 mg/kg/injection, schedule: Q01DX009 (ip), vehicle: saline) was 95 % of control, the T/C [3] was 107 % of control and the T/C (dose: 200.0 mg/kg/injection, schedule: Q01DX009 (ip), vehicle: saline) was 97 % of control. The T/C [4] was 107 % of control, the T/C [5] was 97 % of control and the T/C [6] was 101 % of control.
`CC1(COCCOCC2(C)CO2)CO1` (stereo not drawn) was tested, and the T/C [3] was 97 % of control, the T/C (dose: 180.0 mg/kg/injection, schedule: Q01DX009 (ip), vehicle: saline) was 106 % of control and 108 % of control and the T/C [4] was 103 % of control. For the same molecule, the T/C (dose: 266.0 mg/kg/injection, schedule: Q01DX009 (ip), vehicle: saline) was 112 % of control and the T/C [5] was 150 % of control.
`CC(=O)N=C1CCCC1C#N` (stereo not drawn) was tested, and the T/C [7] was 101 % of control, the T/C [3] was 105 % of control and the T/C [8] was 101 % of control. For the same molecule, the T/C [4] was 109 % of control, the T/C [9] was 95 % of control and the T/C [6] was 100 % of control.
`COP(=O)(OC)OC1C(=O)NC(=O)NC1=O` was tested, and the T/C [10] was 98 % of control, the T/C [11] was 93 % of control and the T/C [12] was 96 % of control. The T/C [13] was 96 % of control.
`CCN(CC)CC(=O)NCC(C)(CCN1CCCCC1)c1cccc2ccccc12` (stereo not drawn) was tested, and the T/C (dose: 25.0 mg/kg/injection, schedule: Q01DX009 (ip), vehicle: saline) was 91 % of control, the T/C (dose: 50.0 mg/kg/injection, schedule: Q01DX009 (ip), vehicle: saline) was 93 % of control and the T/C [3] was 94 % of control.
In the case of `CN(C)c1ccc(/C=N\NC(=S)Nc2ccc3cn[nH]c3c2)cc1`, the T/C [10] is reported as 102 % of control, the T/C [11] is reported as 102 % of control and the T/C [12] is reported as 111 % of control.
`O=C(Nc1cccc(O)c1)C(O)C(O)C(O)C(O)CO` (stereo not drawn) was tested, and the T/C [3] was 97 % of control, the T/C [4] was 94 % of control and the T/C [6] was 91 % of control.
For `O=[N+]([O-])c1ccc(N/N=C/c2ccccc2)cc1`, the T/C (dose: 15.0 mg/kg/injection, schedule: Q01DX Z (ip), vehicle: carboxymethylcellulose (CMC)) was 91 % of control, the T/C (dose: 30.0 mg/kg/injection, schedule: Q01DX Z (ip), vehicle: carboxymethylcellulose (CMC)) was 100 % of control and the T/C (dose: 60.0 mg/kg/injection, schedule: Q01DX Z (ip), vehicle: carboxymethylcellulose (CMC)) was 94 % of control and 100 % of control. For the same molecule, the T/C (dose: 120.0 mg/kg/injection, schedule: Q01DX Z (ip), vehicle: carboxymethylcellulose (CMC)) was 94 % of control and 97 % of control, the T/C (dose: 240.0 mg/kg/injection, schedule: Q01DX Z (ip), vehicle: carboxymethylcellulose (CMC)) was 97 % of control and the T/C (dose: 480.0 mg/kg/injection, schedule: Q01DX Z (ip), vehicle: carboxymethylcellulose (CMC)) was 100 % of control.
`Nc1ncnc2sc3c(c12)CCc1ccccc1-3` was tested, and the T/C [14] was 92 % of control, the T/C [7] was 98 % of control and the T/C [8] was 95 % of control.
`OCCC1(CCO)CCCCC1` was tested, and the T/C (dose: 25.0 mg/kg/injection, schedule: Q01DX009 (ip), vehicle: saline with Tween-80) was 99 % of control, the T/C (dose: 25.0 mg/kg/injection, schedule: Q04DX003 (ip), vehicle: saline with Tween-80) was 114 % of control and the T/C [15] was 95 % of control. For the same molecule, the T/C (dose: 50.0 mg/kg/injection, schedule: Q04DX003 (ip), vehicle: saline with Tween-80) was 104 % of control and the T/C [16] was 95 % of control and 108 % of control.
For `CCCCNC(=O)C(C)S(=O)(=O)c1ccc(C)cc1` (stereo not drawn), the T/C (dose: 100.0 mg/kg/injection, schedule: Q04DX003 (ip), vehicle: saline with Tween-80) was 100 % of control, the T/C (dose: 200.0 mg/kg/injection, schedule: Q04DX003 (ip), vehicle: saline with Tween-80) was 100 % of control and the T/C (dose: 400.0 mg/kg/injection, schedule: Q04DX003 (ip), vehicle: saline with Tween-80) was 98 % of control.
With `CCOC(=O)/C(C)=N/O` the T/C (dose: 100.0 mg/kg/injection, schedule: Q04DX002 (ip), vehicle: saline with Tween-80) was 96 % of control, the T/C (dose: 200.0 mg/kg/injection, schedule: Q04DX002 (ip), vehicle: saline with Tween-80) was 116 % of control and the T/C (dose: 400.0 mg/kg/injection, schedule: Q04DX002 (ip), vehicle: saline with Tween-80) was 104 % of control.
With `O=C1[O][Hg][c]2c1cccc2[N+](=O)[O-]` the T/C (dose: 2.5 mg/kg/injection, schedule: Q01DX009 (ip), vehicle: Klucel (hydroxypropylcellulose) (HPC)) was 92 % of control, the T/C (dose: 2.5 mg/kg/injection, schedule: Q04DX003 (ip), vehicle: Klucel (hydroxypropylcellulose) (HPC)) was 89 % of control and the T/C (dose: 5.0 mg/kg/injection, schedule: Q01DX009 (ip), vehicle: Klucel (hydroxypropylcellulose) (HPC)) was 90 % of control. The T/C (dose: 5.0 mg/kg/injection, schedule: Q04DX003 (ip), vehicle: Klucel (hydroxypropylcellulose) (HPC)) was 88 % of control, the T/C (dose: 10.0 mg/kg/injection, schedule: Q01DX009 (ip), vehicle: Klucel (hydroxypropylcellulose) (HPC)) was 92 % of control and the T/C (dose: 10.0 mg/kg/injection, schedule: Q04DX003 (ip), vehicle: Klucel (hydroxypropylcellulose) (HPC)) was 93 % of control and 96 % of control. The T/C (dose: 20.0 mg/kg/injection, schedule: Q04DX003 (ip), vehicle: Klucel (hydroxypropylcellulose) (HPC)) was 98 % of control.
`CCOC(=O)c1cccc2nc3n(c12)CCC3` was tested, and the T/C [15] was 105 % of control, the T/C (dose: 100.0 mg/kg/injection, schedule: Q01DX001 (ip), vehicle: saline with Tween-80) was 101 % of control and the T/C [16] was 95 % of control. For the same molecule, the T/C (dose: 200.0 mg/kg/injection, schedule: Q01DX001 (ip), vehicle: saline with Tween-80) was 103 % of control and the T/C (dose: 200.0 mg/kg/injection, schedule: Q01DX009 (ip), vehicle: saline with Tween-80) was 94 % of control.
For `C1CCC2C(C1)CCC1CCCCC12` (stereo not drawn), the T/C (dose: 62.5 mg/kg/injection, schedule: Q01DX001 (ip), vehicle: carboxymethylcellulose (CMC)) was 100 % of control, the T/C (dose: 125.0 mg/kg/injection, schedule: Q01DX001 (ip), vehicle: carboxymethylcellulose (CMC)) was 100 % of control and the T/C (dose: 250.0 mg/kg/injection, schedule: Q01DX001 (ip), vehicle: carboxymethylcellulose (CMC)) was 96 % of control. The T/C (dose: 500.0 mg/kg/injection, schedule: Q01DX001 (ip), vehicle: carboxymethylcellulose (CMC)) was 102 % of control.
For `CNC(=O)Nc1ccc(C)cc1`, the T/C [11] was 108 % of control, the T/C [12] was 111 % of control and the T/C [13] was 111 % of control.
For `O=C(Nc1ccc(Cl)cc1[N+](=O)[O-])Oc1ccc(C(=O)OCc2ccccc2)cc1`, the T/C [7] was 101 % of control, the T/C [8] was 103 % of control and the T/C [9] was 110 % of control.
In the case of `NCC(=O)c1cccc2ccc[n+]([O-])c12`, the T/C [14] is reported as 97 % of control, the T/C [7] is reported as 97 % of control and the T/C [1] is reported as 95 % of control. The T/C [2] was 98 % of control.
In the case of `Oc1c(Cl)c(Cl)cc(Cl)c1Cc1c(Cl)cc(Cl)c(Cl)c1[O][Pb]([c]1ccccc1)([c]1ccccc1)[c]1ccccc1`, the T/C (dose: 6.25 mg/kg/injection, schedule: Q01DX009 (ip), vehicle: saline) is reported as 101 % of control, the T/C (dose: 12.5 mg/kg/injection, schedule: Q01DX009 (ip), vehicle: saline) is reported as 95 % of control and the T/C (dose: 25.0 mg/kg/injection, schedule: Q04DX002 (ip), vehicle: saline) is reported as 86 % of control. The T/C (dose: 100.0 mg/kg/injection, schedule: Q04DX002 (ip), vehicle: saline) was 97 % of control.
With `COC1OC2COc3ccccc3OC2C2C1N2C(=N)N[N+](=O)[O-]` (stereo not drawn) the T/C (dose: 40.0 mg/kg/injection, schedule: Q04DX002 (ip), vehicle: saline) was 102 % of control and the T/C (dose: 160.0 mg/kg/injection, schedule: Q04DX002 (ip), vehicle: saline) was 102 % of control.
